Experimental data: patent US20040102454A1, “Phenylahistin and the phenylahistin analogs, a new class of anti-tumor compounds” (priority 1998, published 2004)
In brackets after ≈: the same amount, converted by molar mass. Where two headings read alike, the source gives them in different places.

Key:
[1] = tested on: P388 cells; experiment: P388 proliferation, Alamar Blue assay; format: cell-based, murine
Procedure: For this example, the Alamar Blue™ assay was performed as follows. Exponentially growing P388 cells were seeded into 96-well tissue culture plates (5×10^3 cells/100 μl/well) and cultured in RPMI 1640 medium supplemented with 10% fetal bovine serum for 16 h. Compounds (DMSO solution) were then added to each well at various concentrations, and the cells were cultured for an additional 48 h. Living cells were counted using Alamar Blue™ (BioSource International, Camarillo, Calif.), according to the method of Ahmed, S. A. et al., J. Immunol. Methods, 170, 211 (1994).

[2] = tested on: Microtubule protein from bovine brain; experiment: Microtubule protein polymerization assay (turbidity); format: biochemical
Procedure: Microtubule protein was prepared from bovine brain tissue by two cycles of assembly and disassembly according to the method of Tiwari, S. C. et al. Anal. Biochem, (1993), 215, 96-103. Tubulin was purified from microtubule protein by phosphocellulose chromatography see Algaier, J. et al. Biochim. Biophys. Acta, (1988), 954, 235-43, and tubulin purity was evaluated by polyacrylamide gel electrophoresis, as in Laemmli, U.K., Nature, (1970), […], 680-85. […] Protein concentrations were determined using the Coomassie® Protein Assay Reagent from Pierce (Rockford, Ill.).
Polymerization of microtubule protein was monitored by an increase in turbidity at 37° C. in microtubule assembly buffer containing 100 mM MES, 0.5 mM MgCl2, 1 mM EGTA and 1 mM GTP. See Johnson, K. A. et al., J. Mol. Biol., (1977), 117, 1-31. Polymerization of purified tubulin was measured using the same method except the microtubule assembly buffer contained 4 M glycerol. See Lee, J. C. et al., Biochemistry, (1975), 14, 5183-87. Microtubule protein and tubulin polymerization was initiated by a temperature shift from 0° C. to 37° C. and turbidity was measured on a DU-20 thermocontrolled spectrophotometer from Beckman (Fullerton, Calif.) at 360 nm. Drugs were dissolved in dimethyl sulfoxide (DMSO), which was used in all experiments at a final concentration of 2% (v/v).
For this example, the microtubule protein polymerization assay was performed as follows. Microtubule protein was prepared from bovine brain tissue by two cycles of assembly and disassembly. Polymerization of microtubule protein was monitored by an increase in turbidity at 37° C. in microtubule assembly buffer containing 100 mM MES, 0.5 mM MgCl2, 1 mM EGTA and 1 mM GTP. The polymerization of microtubule protein was initiated by a temperature shift from 0° C. to 37° C. Turbidity was measured on a thermo-controlled spectrophotometer (Beckman DU-20, Fullerton, Calif.) at 360 nm. Compounds were dissolved in DMSO, which was used in all experiments at a final concentration of 2% (v/v).

[3] = tested on: C. albicans 90028; experiment: Antifungal susceptibility testing, broth dilution (NCCLS M38-A); format: cell-based, Candida albicans; settings: Candida albicans, C. albicans 90028
Procedure: (§1) Antifungal susceptibility testing was accomplished according to the methods outlined in the National Committee for Clinical Laboratory Standards, M38-A “Reference Method for Broth Dilution Antifungal Susceptibility Testing of Conidium-Forming Filamentous Fungi; Approved Standard.” This includes testing in RPMI-1640 with glutamine and without bicarbonate, an inoculum size of 0.4-5×10^4, and incubation at 30 or 35° C. for 48 hours. […] Drug concentrations were 0.03-16 μg/ml for the investigational compounds, 0.015-8 μg/ml for itraconazole and griseofulvin.
(§2) The minimum lethal concentration (MLC) was determined by plating […] from the MIC concentration and each concentration above the MIC. […] When a MIC was obtained, a minimum fungicidal concentration (MFC) was determined to assess the fungistatic/fungicidal nature of the compound. […] The compound is scored as fungistatic if the cells are able to resume growth and fungicidal if no regrowth is possible because the compound had killed the organisms.

[4] = tested on: C. albicans 10231; experiment: as above; format: cell-based, Candida albicans; settings: Candida albicans, C. albicans 10231
Procedure: as §1, §2

[5] = tested on: C. glabrata; experiment: as above; format: cell-based, Candida glabrata; settings: Nakaseomyces glabratus, C. glabrata
Procedure: as §1, §2

[6] = tested on: MES-SA DX (Taxol Resistant) human uterine sarcoma tumor cell line; experiment: Drug resistant cell line pair, cytotoxicity; format: cell-based
From the text: MES-SA (Taxol Sensitive) and MES-SA DX (Taxol Resistant). This cell line expresses elevated mdr-1 mRNA and P-glycoprotein (an extrusion pump mechanism). Pretreatment with cyclosporin-A (CsA) blocks P-glycoprotein and reinstates activity in the resistant cell line for those compounds for which the resistance is due to elevated P-glycoprotein.

[7] = tested on: T. rubrum isolate #1; experiment: Antifungal susceptibility testing, broth dilution (NCCLS M38-A); format: cell-based, Trichophyton rubrum; settings: T. rubrum isolate #1
Procedure: as §1, §2

[8] = tested on: T. rubrum isolate #2; experiment: as above; format: cell-based, Trichophyton rubrum
Procedure: as §1, §2

[9] = tested on: E. floccosum isolate #1; experiment: as above; format: cell-based, Epidermophyton floccosum; settings: 80% reduction in turbidity
Procedure: as §1, §2

[10] = tested on: E. floccosum isolate #2; experiment: as above; format: cell-based, Epidermophyton floccosum
Procedure: as §1, §2

[11] = tested on: T. mentagrophytes isolate #1; experiment: as above; format: cell-based, Trichophyton mentagrophytes
Procedure: as §1, §2

[12] = tested on: T. mentagrophytes isolate #2; experiment: as above; format: cell-based, Trichophyton mentagrophytes; settings: 80% reduction in turbidity
Procedure: as §1, §2

[13] = Alamar Blue assay (Table 4), read-out: IC50 for P388 Proliferation
[14] = means (±SEM) of three experiments (Table 9), read-out: IC50 P388 proliferation
[15] = microtubule protein 1.5 mg/mL (Table 9), read-out: IC50 Microtubule Protein polymerization
[16] = microtubule protein 1.5 mg/ml (Table 4), read-out: IC50 for Microtubule Protein Polymerization
[17] = 80% reduction in turbidity, read-out: MIC

## (+)-Cyclo-[5-(1,1-dimethylpropyl)histidinyl-L-phenylalanine] [Compound 6]
[1]; [13]
  IC50: > 200 µM
[1]; [14]
  IC50: > 200 µM
[2]; [15]
  IC50: > 200 µM
[2]; [16]
  IC50: > 200 µM

## O=C1N[C@@H](Cc2cnc[nH]2)C(=O)N[C@H]1Cc1ccccc1 [Cyclo-His-Phe, reference compound]
[1]; [13]
  IC50: > 200 µM
[1]; [14]
  IC50: > 200 µM
[2]; [15]
  IC50: > 200 µM
[2]; [16]
  IC50: > 200 µM

## CCCCNC(=O)n1c(NC(=O)OC)nc2ccccc21 [benomyl]
[3]; [17]
  MIC: 64 µg/mL (≈ 220 µM)
[3]; read-out: MFC
  MFC: > 512 µg/mL
[4]; [17]
  MIC: 64 µg/mL (≈ 220 µM)
[4]; read-out: MFC
  MFC: > 512 µg/mL
[5]; [17]
  MIC: 64 µg/mL (≈ 220 µM)
[5]; read-out: MFC
  MFC: > 512 µg/mL

## (+)-Cyclo-[5-(1,1-dimethylpropyl)dehydrohistidinyl-L-phenylalanine] [Compound 4]
[1]; [13]
  IC50: 19 µM
[1]; [14]
  IC50: 19 µM
[2]
  inhibition percentage at 200 μM, microtubule protein polymerization: 12%
[2]; [15]
  IC50: > 200 µM
[2]; [16]
  IC50: > 200 µM

## (−)-Cyclo-[5-(1,1-dimethylpropyl)dehydrohistidinyl-L-phenylalanine] [Compound 3]
[1]; [13]
  IC50: 0.23 µM
[1]; [14]
  IC50: 0.23 µM
[2]; [15]
  IC50: 30 µM
[2]; [16]
  IC50: 30 µM

## COc1cc([C@@H]2c3cc4c(cc3[C@@H](O[C@@H]3O[C@@H]5CO[C@@H](C)O[C@H]5[C@H](O)[C@H]3O)[C@H]3COC(=O)[C@H]23)OCO4)cc(OC)c1O [etoposide, reference compound]
[6]
  reduced susceptibility of the MES-SA DX cell line: 60 fold

## O=C1NC(Cc2ccccc2)C(=O)NC1=Cc1c[nH]cn1 [Compound 19, Cyclo-[dehydrohistidinyl-L-phenylalanine]]
[1]; Mus musculus, P388, means (±SEM) of three experiments (Table 9), read-out: IC50 P388 proliferation
  IC50: > 200 µM
[2]
  inhibition percentage at 200 μM, microtubule protein polymerization: 11%
[2]; [15]
  IC50: > 200 µM

## CC(C)(C)c1[nH]cnc1/C=C1\NC(=O)[C@H](Cc2ccccc2)NC1=O [NPI2460]
[7]
  MFC: 0.125 µg/mL (≈ 0.369 µM)
[7]; 80% reduction in turbidity
  MIC: <0.03 µg/mL
[8]
  MFC: <0.03 µg/mL
[8]; 80% reduction in turbidity
  MIC: <0.03 µg/mL
[9]
  MIC: >16 µg/mL
[10]
  MICs and MFCs: >16 µg/mL
[11]
  MFC: >16 µg/mL
[11]; 80% reduction in turbidity
  MIC: 4 µg/mL (≈ 11.8 µM)
[12]
  MIC: >16 µg/mL
